Laboratory results published in US7666885B2, “Enzyme inhibitors” (Consejo Superior de Investigaciones Cientificas, priority 2000, dated 2010).
Where two headings read alike, the source gives them in different places.

Legend:
GSK-3β = molecular target: T1, GSK-3β (Homo sapiens, UniProt P49841); test: GSK-3β inhibition (radiometric, GS 1 peptide); type: biochemical
T1 construct: purchased Sigma
Description: GSK-3β inhibition: The GSK-3 activity was determined by incubation of a mixture of GSK-3 enzyme (Sigma), a phosphate source and a GSK-3 substrate in the presence and in the absence of the corresponding test compound, and by measuring the GSK-3 activity of this mixture.
The reaction is quenched by addition of an aliquot of the reaction mixture in phosphocelullose p81 papers. These papers are washed three times with phosphoric acid 1% and the radioactivity incorporated to the GS 1 peptide is measured in a liquid scintillation counter.

N2A cells = test: Cell cycle blockade; type: cell-based, mice; conditions: N2A cell cultures, Table 5
Description: In parallel, the potential interference of these compounds with the cell cycle was studied on N2A cells. The cell culture was maintained in a Dulbecco medium (DEMEM) with a 10% fethal bovine serum, glutamine (2 mM) and antibiotics.
The first four compounds of general formula (I) gathered in Table 3 were assayed in the described conditions and shown ability to inhibit the cell cycle at an inhibitor concentration comprised between 100 nM and 1 μM. The cellular blockade was initially observed at concentrations comprised between 100-200 nM and was totally effective at 1 μM.

[1] = GSK-3 enzyme (Sigma), 15 μM ATP, GS 1 peptide, Tables 3, 3a, 4, read-out: IC50
[2] = Tables 4a, 4b, read-out: GSK-3β IC50

T1 sequence (P49841 whole entry, species assumed): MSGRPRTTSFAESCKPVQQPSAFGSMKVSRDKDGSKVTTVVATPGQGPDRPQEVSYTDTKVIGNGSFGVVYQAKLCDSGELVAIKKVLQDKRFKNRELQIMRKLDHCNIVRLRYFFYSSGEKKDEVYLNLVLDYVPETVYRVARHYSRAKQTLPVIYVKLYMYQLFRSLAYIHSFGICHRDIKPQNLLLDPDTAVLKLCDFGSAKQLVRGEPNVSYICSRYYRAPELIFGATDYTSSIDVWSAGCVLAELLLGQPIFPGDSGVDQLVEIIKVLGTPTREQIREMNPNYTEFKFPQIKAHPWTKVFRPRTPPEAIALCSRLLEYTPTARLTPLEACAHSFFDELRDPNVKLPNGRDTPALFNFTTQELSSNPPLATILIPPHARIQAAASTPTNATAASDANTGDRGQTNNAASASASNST

Compound | IC50 (GSK-3β; [1]) | other results
O=c1sn(Cc2ccccc2)c(=S)n1Cc1ccccc1 [Compound 11, 2,4-Dibenzyl-5-oxo-thiadiazolidine-3-thione] | 10 µM | IC50 (N2A cells): 1 to 2 µM
NN1C(=O)CSC1=S [Compound 7-G] | – | IC50 (GSK-3β; [2]): > 100 µM
O=C1C=CC(=O)N1CCCCCc1ccccc1 [Compound 6-D, N-(5-phenylpentyl)maleimide] | – | melting point: 49 to 51 °C
COc1ccc(CN2C(=O)C=CC2=O)cc1 [Compound 7-D, N-(p-methoxybenzyl)maleimide] | – | IC50 (GSK-3β; [2]): 2.5 µM
COc1ccc(CCN2C(=O)C=CC2=O)cc1 [Compound 8-D, N-(p-Methoxyphenethyl)maleimide] | – | melting point: 79 to 81 °C
O=C1NC(=O)c2ccccc21 [Compound 1-F] | > 100 µM | –
4-Ethyl-5-[imino-(1-methyl-piperidin-3-yl)]-2-methyl-1,2,4-thiadiazolidin-3-One [Compound 25] | > 100 µM | –
O=c1sn(-c2ccccc2)c(=S)n1-c1ccccc1 [Compound 12, 2,4-diphenyl-5-oxo-thiadiazolidine-3-thione] | 20 µM | IC50 (N2A cells): 4 to 8 µM
CCOC(=O)Cn1sc(=O)n(Cc2ccccc2)c1=O [Compound 33, 4-Benzyl-2-(Ethoxycarbonylmethyl)-1,2,4-thiadiazolidine-3,5-dione] | 4 µM | –
O=C1CCC(=O)C1 [Compound 1-A] | > 100 µM | –
CCCn1sc(=O)n(CC)c1=O [Compound 3, 4-Ethyl-2-n-propyl-1,2,4-thiadiazolidine-3,5-dione] | 10 µM | IC50 (N2A cells; Mus musculus): 5 to 10 µM
CCOC(=O)Cn1c(=O)sn(C(=O)c2ccccc2)c1=O [Compound 47, 2-Benzoyl-4-(ethoxycarbonylmethyl)-1,2,4-thiadiazolidine-3,5-dione] | 4 µM | –
CCn1c(=O)sn(C2CCCCC2)c1=O [Compound 4, 2-Cyclohexyl-4-ethyl-1,2,4-thiadiazolidine-3,5-dione] | 10 µM | IC50 (N2A cells; Mus musculus): 6 to 9 µM
CCn1sc(=O)n(CCc2ccccc2)c1=O [Compound 41, 2-Ethyl-4-phenethyl-1,2,4-thiadiazolidine-3,5-dione] | 8 µM | –
Cc1ccc(-n2c(=O)sn(C)c2=O)cc1 [Compound 15, 4-(4-Methylphenyl)-2-methyl-1,2,4-thiadiazolidine-3,5-dione] | 5 µM | –
Cn1sc(=O)n(-c2ccc(Br)cc2)c1=O [Compound 16, 4-(4-Bromophenyl)-2-methyl-1,2,4-thiadiazolidine-3,5-dione] | 3 µM | –
Cn1sc(=O)n(Cc2ccccc2)c1=O [Compound 1, 4-Benzyl-2-methyl-1,2,4-thiadiazolidine-3,5-dione] | – | IC50 (N2A cells; Mus musculus): 4 to 8 µM
O=C1C=CC(=O)N1CCc1ccccc1 [Compound 4-D, N-phenethylmaleimide] | – | IC50 (GSK-3β; [2]): 2 µM
CCn1sc(=O)n(Cc2ccccc2)c1=S [Compound 10, 4-Benzyl-2-ethyl-5-oxo-1,2,4-thiadiazolidine-3-thione] | 6 µM | –
O=C(CN1C(=O)CSC1=S)c1ccccc1 [Compound 6-G, 3-Phenacyl-2-thioxo-thiazolidin-4-One] | 50 µM | –
CCOC(=O)Cn1c(=O)sn(C(C)C)c1=O [Compound 46, 4-(Ethoxycarbonylmethyl)-2-isopropyl-1,2,4-thiadiazolidine-3,5-dione] | 7 µM | –
CCn1sc(=O)n(Cc2ccccc2)c1=O [Compound 8, 4-Benzyl-2-ethyl-1,2,4-thiadiazolidine-3,5-dione] | 7 µM | IC50 (N2A cells; Mus musculus): 4 to 7 µM
O=C1CCC(=O)N1Cc1ccccc1 [Compound 2-E] | > 100 µM | –

Compound | IC50 (GSK-3β; [1]) | other results
3-(4-Ethyl-3-oxo-2-methyl-1,2,4-thiadiazolidin-5-ylidine)aminopyridine-1-oxide [Compound 23] | > 100 µM | –
Cn1sc(=O)n(-c2ccc(F)cc2)c1=O [Compound 17, 4-(4-Fluorophenyl)-2-methyl-1,2,4-thiadiazolidine-3,5-dione] | 4 µM | –
Cn1sc(=O)n(-c2ccc(Cl)cc2)c1=O [Compound 18, 4-(4-Chlorophenyl)-2-methyl-1,2,4-thiadiazolidine-3,5-dione] | 4 µM | –
CCn1sc(=NO)n(-c2ccccc2)c1=O [Compound 50, 2-Ethyl-4-phenyl-1,2,4-thiadiazolidine-3-one-5-oxime] | 100 µM | –
O=C(O)CN1C(=O)CSC1=S [Compound 3-G, (4-oxo-2-thioxo-thiazolidin-3-yl)-acetic acid] | > 100 µM | –
O=C1C=CC(=O)N1CCCc1ccccc1 [Compound 5-D, N-(3-phenylpropyl)maleimide] | – | melting point: 79 to 80 °C
CCn1c(=O)sn(C(C)C)c1=O [Compound 9, 4-Ethyl-2-isopropyl-1,2,4-thiadiazolidin-3,5-dione] | 35 µM | –
O=c1[nH]sc(=O)n1Cc1ccccc1 [Compound 42, 4-Benzyl-1,2,4-thiadiazolidine-3,5-dione] | 50 µM | –
CCn1sc(=O)n(-c2ccc([N+](=O)[O-])cc2)c1=O [Compound 49, 2-Ethyl-4-(4-nitrophenyl)-1,2,4-thiadiazolidine-3,5-dione] | 8.5 µM | –
O=C(c1ccccc1)n1sc(=O)n(Cc2ccccc2)c1=O [Compound 31, 2-Benzoyl-4-benzyl-1,2,4-thiadiazolidine-3,5-dione] | 3 µM | –
CCn1c(=O)sn(C)c1=O [Compound 2, 4-Ethyl-2-methyl-1,2,4-thiadiazolidine-3,5-dione] | 5 µM | IC50 (N2A cells; Mus musculus): 40 to 100 µM
CCn1sc(=NO)n(Cc2ccccc2)c1=O [Compound 36, 4-Benzyl-2-ethyl-1,2,4-thiadiazolidine-3-one-5-oxime] | 6 µM | –
3-[5-(4-Ethyl-2-methyl-3-oxo)imino-1,2,4-thiadiazolidyl]-1-methyl-pyridinium iodide [Compound 24] | > 100 µM | –
O=C1CSC(=S)N1CCc1ccccc1 [Compound 5-G, 3-Phenethyl-2-thioxo-thiazolidin-4-One] | 35 µM | –
O=C1c2ccccc2C(=O)N1Cc1ccccc1 [Compound 2-F] | > 100 µM | –
CCOC(=O)Cn1c(=O)sn(C)c1=O [Compound 6, 4-(Ethoxycarbonylmethyl)-2-methyl-1,2,4-thiadiazolidine-3,5-dione] | 5 µM | IC50 (N2A cells; Mus musculus): 1 to 2 µM
CCn1sc(=O)n(CC)c1=O [Compound 13, 2,4-diethyl-5-oxo-1,2,4-thiadiazolidine-3,5-dione] | 20 µM | –
CCOC(=O)Cn1sc(=O)n(CC(=O)OCC)c1=O [Compound 44, 4-(Ethoxycarbonylmethyl)-2-(ethoxycarbonylmethyl)-1,2,4-thiadiazolidine-3,5-dione] | 4 µM | –
O=C1C=CC(=O)C1 [Compound 1-B] | 12 µM | –
Cn1c(=O)n(-c2ccccc2)c(=O)n1C [Compound 2-H] | > 100 µM | –
Cn1sc(=O)n(-c2ccccc2)c1=O [Compound 5, 4-Phenyl-2-methyl-1,2,4-thiadiazolidin-3,5-dione] | 2 µM | IC50 (N2A cells; Mus musculus): 4 to 7 µM
CCOC(=O)Cn1c(=O)sn(C)c1=O [Compound 45, 4-(Ethoxycarbonylmethyl)-2-methyl-1,2,4-thiadiazolidine-3,5-dione] | 2 µM | –
COc1ccc(-n2c(=O)sn(C)c2=O)cc1 [Compound 7, 4-(4-Methoxyphenyl)-2-methyl-1,2,4-thiadiazolidine-3,5-dione] | – | IC50 (N2A cells; Mus musculus): 1 to 2 µM
